# Residues, ends and D or L forms follow the SMILES beside them. *: point of attachment. Cbz = O=C(OCc1ccccc1)*; CH2F = FC*
# Columns and labels:
# [1] = HPLC quantification of caspase inhibitor in stabilization reagent before and after gamma irradiation; format: physicochemical; details: for [Casp] (Pre-Irr) / [Casp] (Post-Irr): 50 ml bulk; for [Casp] (Post-Irr): 25 kGy
# Method: Caspase inhibitor (Q-VD-OPh) was dissolved and diluted in DMSO for generation of a standard curve. Concentrations of 7.5, 15, 30 and 60 μg/ml were used to generate the standard curve.
# Stabilization reagents containing a mixture of caspase inhibitor, EDTA, DMPA and PEG were tested before and after gamma irradiation. Unique peaks for caspase inhibitor were identified and compared to the standard curve for total quantification of caspase inhibitor. The concentration of caspase inhibitor was determined before and after irradiation, and these concentrations were compared for relative quantification.
# For the production of PAXgene Blood ccfDNA Alpha blood collection tubes (Alpha BCT), BD standard tubes for 10 ml blood draw were filled with 1.3-1.7 ml ccfDNA stabilization reagent. The exemplary stabilization reagents tested comprised a mixture of caspase inhibitor (Q-VD-OPh), K2EDTA, DMPA, PEG300 and PEG10000, according to PCT/EP2015/055699. A vacuum was applied to the tubes to allow for a 10.25 ml blood draw. Tubes were sterilized by gamma irradiation using Cobalt-60 as energetic gamma ray source in a range of 5 to 35 kGy. […]
# Stabilization reagents were produced with or without the addition of radical scavengers and sterilized in bulk by gamma irradiation. The caspase inhibitor concentration was measured by HPLC before and after irradiation to determine the effect of scavenger addition on caspase inhibitor degradation during sterilization by gamma irradiation.
# Stabilization reagents according to PCT/EP2015/055699 were produced with or without the addition of radical scavengers in different concentrations and with different concentrations of caspase inhibitor. PAXgene Blood ccfDNA Alpha tubes were produced by filling 1.7 ml of the respective stabilization reagent into a standard Vacutainer. Tubes were sterilized by gamma irradiation with different energy levels. The caspase inhibitor concentration was measured by HPLC before and after irradiation (see Table 7 below).
# [2] = test system: ccfDNA level in whole blood (66 bp and 500 bp fragments of the 18S rDNA gene); assay: ccfDNA stabilization in stored whole blood, real time PCR of 18S rDNA fragments in plasma; details: for copy numbers of the 500 bp fragment of the 18S rDNA gene: caspase inhibitor approx. 5 μM in stabilized blood; for change of copy numbers (x fold change) of 66 bp and 500 bp fragments of the 18S rDNA gene: 6 days at room temperature, FIG. 3
# Method: Blood was drawn into Alpha BCT for stabilization of the ccfDNA level. 10 ml spray dried EDTA tubes (BD) with 1.8 mg K2EDTA per ml of whole blood served as non-stabilized negative control. Blood and reagents were mixed by inverting the tube ten times. Stabilized and non-stabilized blood samples were stored at room temperature standing in an upright position.
# Whole blood samples were centrifuged at ambient temperature for 15 min at 1.900×g. The clear plasma fraction was transferred into a fresh centrifuge tube. In a second round, plasma samples were centrifuged for 10 min at 16.000×g in case of non-stabilized EDTA-blood or for 10 min at 1.900×g in case of stabilized Alpha BCT blood. The supernatant was transferred into a new tube and used either directly for the purification of ccfDNA or stored at −20° C. until use.
# DNA from plasma was isolated with the QIAamp circulating nucleic acid kit (QIAGEN GmbH), using the protocol for purification of circulating nucleic acids from 1 ml, 2 ml, or 3 ml serum or plasma. If not stated otherwise, 2 ml of plasma was mixed with proteinase K and lysis buffer ACL, incubated for 30 min at 60° C., mixed with buffer ACB, bound on QIAamp Mini columns with the use of a QIAvac 24 Plus vacuum manifold, washed and eluted with 60 μl elution buffer AVE, according to the manufactures recommendations.
# ccfDNA from 2 ml plasma was isolated with a preliminary version of the QIAsymphony Circulating DNA protocol and kit (QIAGEN). If not stated otherwise, the QIAsymphony robot mixed 2 ml of plasma with proteinase K, binding buffer and magnetic beads. Beads with bound DNA were washed three times and DNA was eluted using 60 μl elution buffer.
# To measure the amount of ccfDNA, a real time PCR assay on Abi Prism HT7900 (Life Technologies) was performed with 3 μl of eluate. In a 20 μl assay volume using QuantiTect Multiplex PCR Kit reagents (QIAGEN GmbH), two fragments of the human 18S rDNA gene were amplified in a multiplex PCR. Total quantification was achieved by comparison with a standard curve generated with human genomic DNA diluted from 3000 to 0.3 genome equivalents (1 genome equivalent equates to around 6.6 μg of human genomic DNA).
# Quantification of the 66 bp fragment was used to reflect the total amount of 18S rDNA copies in the plasma. Quantification of the 500 bp was used to determine the amount of 18S rDNA copies which derived from apoptotic or mechanically lysed leukocytes from whole blood. […] The increase of copy numbers from the 500 bp fragment between day 0 and 3 or 6 days storage, was used as a measurement of stability efficiency.
# PAXgene Blood ccfDNA Alpha tubes were produced and sterilized by gamma irradiation with different energy levels. Samples of 10 ml whole blood from eight donors were collected in 10 ml spray dry K2EDTA tubes (non-stabilized controls) and in PAXgene Blood ccfDNA Alpha tubes. Plasma was generated from 5 ml of stabilized or non-stabilized blood samples directly after blood draw. Residual blood was stored for additional 6 days at room temperature before plasma generation. ccfDNA was purified manually from 2 ml plasma, copy numbers of 18S rDNA gene were determined in triplicates by real time PCR.
# Samples of 10 ml whole blood from eight donors were collected in 10 ml spray dry K2EDTA tubes. Directly after blood draw, non-stabilized blood samples were stabilized by addition of 1.7 ml of a ccfDNA stabilization reagent according to PCT/EP2015/055699 with or without addition of the different compounds tested for their impact on extracellular nucleic acid stabilization.
# Plasma was generated from 5 ml of stabilized blood samples directly after the blood draw (day 0).
# [3] = scavenger 1 mg/ml, casp-inh. 5 μM, 0 kGy
# [4] = scavenger 1 mg/ml, casp-inh. 5 μM, 20 kGy
# [5] = scavenger 1 mg/ml, casp-inh. 5 μM, 30 kGy
# [6] = scavenger 5-10 mg/ml, 0.5-1% (w/v)
# [7] = 6 donors, 5 days at room temperature, FIG. 10
# [8] = scavenger 0.1-1 mg/ml, 0.01-0.1% (w/v)
# [9] = scavenger 0.5-10 mg/ml, 0.05-1% (w/v)
smiles,measurement,setting,value
O=C1O[C@H]([C@@H](O)CO)C(O)=C1O [Ascorbic acid],HPLC Testing [C-Inh],[1]; [3],18.2 µg/mL
same,HPLC Testing [C-Inh],[1]; [4],7.0 µg/mL
same,HPLC Testing [C-Inh],[1]; [5],5.0 µg/mL
same,HPLC Testing [C-Inh],"[1]; scavenger 2 mg/ml, casp-inh. 5 μM, 10 kGy",15.2 µg/mL
same,HPLC Testing [C-Inh],"[1]; scavenger 2 mg/ml, casp-inh. 5 μM, 20 kGy",10.7 µg/mL
same,HPLC Testing [C-Inh],"[1]; scavenger 2 mg/ml, casp-inh. 5 μM, 30 kGy",9.5 µg/mL
same,[Casp] (Pre-Irr),[1]; scavenger 5 mg/ml-27.5 mM,16.522 µg/mL
same,[Casp] (Post-Irr),[1]; scavenger 5 mg/ml-27.5 mM,12.5986 µg/mL
same,HPLC Testing [C-Inh],"[1]; scavenger 5 mg/ml, casp-inh. 5 μM, 0 kGy",19.2 µg/mL
same,HPLC Testing [C-Inh],"[1]; scavenger 5 mg/ml, casp-inh. 5 μM, 10 kGy",16.0 µg/mL
same,HPLC Testing [C-Inh],"[1]; scavenger 5 mg/ml, casp-inh. 5 μM, 20 kGy",12.8 µg/mL
same,HPLC Testing [C-Inh],"[1]; scavenger 5 mg/ml, casp-inh. 5 μM, 30 kGy",12.1 µg/mL
same,HPLC Testing [C-Inh],"[1]; scavenger 5 mg/ml, casp-inh. 10 μM, 0 kGy",37.7 µg/mL
same,HPLC Testing [C-Inh],"[1]; scavenger 5 mg/ml, casp-inh. 10 μM, 10 kGy",31.2 µg/mL
same,HPLC Testing [C-Inh],"[1]; scavenger 5 mg/ml, casp-inh. 10 μM, 20 kGy",26.8 µg/mL
same,HPLC Testing [C-Inh],"[1]; scavenger 5 mg/ml, casp-inh. 10 μM, 30 kGy",23.7 µg/mL
same,HPLC Testing [C-Inh],"[1]; scavenger 5 mg/ml, casp-inh. 15 μM, 0 kGy",55.5 µg/mL
same,HPLC Testing [C-Inh],"[1]; scavenger 5 mg/ml, casp-inh. 15 μM, 10 kGy",46.4 µg/mL
same,HPLC Testing [C-Inh],"[1]; scavenger 5 mg/ml, casp-inh. 15 μM, 20 kGy",40.6 µg/mL
same,HPLC Testing [C-Inh],"[1]; scavenger 5 mg/ml, casp-inh. 15 μM, 30 kGy",35.5 µg/mL
same,HPLC Testing [C-Inh],"[1]; scavenger 10 mg/ml, casp-inh. 5 μM, 0 kGy",18.4 µg/mL
same,HPLC Testing [C-Inh],"[1]; scavenger 10 mg/ml, casp-inh. 5 μM, 10 kGy",16.0 µg/mL
same,HPLC Testing [C-Inh],"[1]; scavenger 10 mg/ml, casp-inh. 5 μM, 20 kGy",13.5 µg/mL
same,Protection against gamma irradiation,[1]; [6],high
same,average total copy numbers of the 500 bp fragment of the 18S rDNA gene,"[2]; scavenger 20 mg/ml, directly after blood collection, FIG. 5",reduced ccfDNA absolute copy numbers
same,Effect on ccfDNA stability,[2]; [6],neutral
COC(=O)CC(NC(=O)OC(C)(C)C)C(=O)CF [Boc-D-(OMe)-FMK],copy numbers of the 500 bp fragment of the 18S rDNA gene,[2]; [7],comparable to the fragment numbers in blood stabilized with the PAXgene Blood ccfDNA Tube
O=C(O)c1cc(O)c(O)c(O)c1 [Gallic acid],[Casp] (Pre-Irr),[1]; scavenger 500 μg/ml-2.9 mM,16.633 µg/mL
same,[Casp] (Post-Irr),[1]; scavenger 500 μg/ml-2.9 mM,0.5888 µg/mL
same,Protection against gamma irradiation,"[1]; scavenger 0.5-2 mg/ml, 0.2% (w/v)",none
same,change of copy numbers (x fold change) of 66 bp and 500 bp fragments of the 18S rDNA gene,"[2]; scavenger 2 mg/ml in non-irradiated reagent, 8 donors",lead to an increased release of DNA
N[C@@H](CCC(=O)N[C@@H](CS)C(=O)NCC(=O)O)C(=O)O [Glutathione],HPLC Testing [C-Inh],"[1]; scavenger 0.05 mg/ml, casp-inh. 5 μM, 0 kGy",19.1 µg/mL
same,HPLC Testing [C-Inh],"[1]; scavenger 0.05 mg/ml, casp-inh. 5 μM, 10 kGy",14.1 µg/mL
same,HPLC Testing [C-Inh],"[1]; scavenger 0.05 mg/ml, casp-inh. 5 μM, 20 kGy",8.9 µg/mL
same,HPLC Testing [C-Inh],"[1]; scavenger 0.05 mg/ml, casp-inh. 5 μM, 30 kGy",6.6 µg/mL
same,[Casp] (Pre-Irr),[1]; scavenger 100 μg/ml-320 μM,16.454 µg/mL
same,[Casp] (Post-Irr),[1]; scavenger 100 μg/ml-320 μM,10.4422 µg/mL
same,HPLC Testing [C-Inh],"[1]; scavenger 0.1 mg/ml, casp-inh. 5 μM, 0 kGy",18.8 µg/mL
same,HPLC Testing [C-Inh],"[1]; scavenger 0.1 mg/ml, casp-inh. 5 μM, 10 kGy",14.3 µg/mL
same,HPLC Testing [C-Inh],"[1]; scavenger 0.1 mg/ml, casp-inh. 5 μM, 20 kGy",9.9 µg/mL
same,HPLC Testing [C-Inh],"[1]; scavenger 0.1 mg/ml, casp-inh. 5 μM, 30 kGy",7.5 µg/mL
same,HPLC Testing [C-Inh],"[1]; scavenger 0.1 mg/ml, casp-inh. 10 μM, 0 kGy",37.9 µg/mL
same,HPLC Testing [C-Inh],"[1]; scavenger 0.1 mg/ml, casp-inh. 10 μM, 10 kGy",29.4 µg/mL
same,HPLC Testing [C-Inh],"[1]; scavenger 0.1 mg/ml, casp-inh. 10 μM, 20 kGy",23.3 µg/mL
same,HPLC Testing [C-Inh],"[1]; scavenger 0.1 mg/ml, casp-inh. 10 μM, 30 kGy",17.7 µg/mL
same,HPLC Testing [C-Inh],"[1]; scavenger 0.1 mg/ml, casp-inh. 15 μM, 0 kGy",55.5 µg/mL
same,HPLC Testing [C-Inh],"[1]; scavenger 0.1 mg/ml, casp-inh. 15 μM, 10 kGy",42.7 µg/mL
same,HPLC Testing [C-Inh],"[1]; scavenger 0.1 mg/ml, casp-inh. 15 μM, 20 kGy",33.2 µg/mL
same,HPLC Testing [C-Inh],"[1]; scavenger 0.1 mg/ml, casp-inh. 15 μM, 30 kGy",25.0 µg/mL
same,HPLC Testing [C-Inh],"[1]; scavenger 0.2 mg/ml, casp-inh. 5 μM, 0 kGy",19.9 µg/mL
same,HPLC Testing [C-Inh],"[1]; scavenger 0.2 mg/ml, casp-inh. 5 μM, 20 kGy",11.9 µg/mL
same,HPLC Testing [C-Inh],"[1]; scavenger 0.2 mg/ml, casp-inh. 5 μM, 30 kGy",10.2 µg/mL
same,HPLC Testing [C-Inh],"[1]; scavenger 0.5 mg/ml, casp-inh. 5 μM, 10 kGy",15.4 µg/mL
same,HPLC Testing [C-Inh],"[1]; scavenger 0.5 mg/ml, casp-inh. 5 μM, 20 kGy",12.3 µg/mL
same,HPLC Testing [C-Inh],"[1]; scavenger 0.5 mg/ml, casp-inh. 5 μM, 30 kGy",11.1 µg/mL
same,HPLC Testing [C-Inh],[1]; [3],20.0 µg/mL
same,HPLC Testing [C-Inh],[1]; [4],13.8 µg/mL
same,HPLC Testing [C-Inh],[1]; [5],12.6 µg/mL
same,Protection against gamma irradiation,[1]; [8],high
same,Effect on ccfDNA stability,[2]; [8],neutral
CC(C)O [Isopropanol],Protection against gamma irradiation,[1]; scavenger 1% (v/v),none
same,[Casp] (Pre-Irr),[1]; scavenger 1%,16.572 µg/mL
same,[Casp] (Post-Irr),[1]; scavenger 1%,0.8517 µg/mL
OC[C@@H](O)[C@@H](O)[C@H](O)[C@H](O)CO [Mannitol],Protection against gamma irradiation,"[1]; scavenger 5 mg/ml, 0.5% (w/v)",none
same,[Casp] (Pre-Irr),[1]; scavenger 0.5%,16.554 µg/mL
same,[Casp] (Post-Irr),[1]; scavenger 0.5%,1.0667 µg/mL
CC(=O)N[C@@H](CS)C(=O)O [N-acetyl-L-cysteine],[Casp] (Pre-Irr),[1]; scavenger 2 mg/ml-12 mM,16.468 µg/mL
same,[Casp] (Post-Irr),[1]; scavenger 2 mg/ml-12 mM,14.1849 µg/mL
same,Protection against gamma irradiation,[1]; [9],high
same,protection of caspase inhibitors from gamma-irradiation (copy numbers of the 500 bp fragment),"[2]; 0.5 mg/ml in reagent, 30 kGy, 6 donors, 5 days at room temperature, FIG. 10",efficiently protected the caspase inhibitors Boc-D-(OMe)-FMK and Z-VAD (OMe)-FMK from gamma-irradiation
same,Effect on ccfDNA stability,[2]; [9],neutral
O=C(OC[C@H]1O[C@@H](OC(=O)c2cc(O)c(O)c(OC(=O)c3cc(O)c(O)c(O)c3)c2)[C@H](OC(=O)c2cc(O)c(O)c(OC(=O)c3cc(O)c(O)c(O)c3)c2)[C@@H](OC(=O)c2cc(O)c(O)c(OC(=O)c3cc(O)c(O)c(O)c3)c2)[C@@H]1OC(=O)c1cc(O)c(O)c(OC(=O)c2cc(O)c(O)c(O)c2)c1)c1cc(O)c(O)c(OC(=O)c2cc(O)c(O)c(O)c2)c1 [Tannic acid],change of copy numbers (x fold change) of 66 bp and 500 bp fragments of the 18S rDNA gene,"[2]; scavenger 1 mg/ml in non-irradiated reagent, 8 donors",lead to an increased release of DNA
"Cc1c(C)c2c(c(C)c1O)CCC(C)(C(=O)O)O2 (stereo not drawn) [Trolox, 6-hydroxy-2,5,7,8-tetramethylchromane-2-carboxylic acid]",[Casp] (Pre-Irr),[1]; scavenger 4 mM,16.534 µg/mL
same,[Casp] (Post-Irr),[1]; scavenger 4 mM,3.0195 µg/mL
same,[Casp] (Pre-Irr),[1]; scavenger 5 mM in DMSO,16.649 µg/mL
same,[Casp] (Post-Irr),[1]; scavenger 5 mM in DMSO,3.3548 µg/mL
CCCCCCCC/C=C\CCCCCCCC(=O)OCCOCC(OCCO)C1OCC(OCCO)C1OCCO (stereo not drawn) [Tween-80],[Casp] (Pre-Irr),[1]; scavenger 0.6 mM,16.550 µg/mL
same,[Casp] (Post-Irr),[1]; scavenger 0.6 mM,0.8856 µg/mL
same,Protection against gamma irradiation,"[1]; scavenger 0.74 mg/ml, 0.07% (v/v)",none
"COC(=O)C[C@H](NC(=O)[C@H](C)NC(=O)[C@@H](NC(=O)OCc1ccccc1)C(C)C)C(=O)CF [Z-VAD (OMe)-FMK, Z-Val-Ala-Asp(OMe)-FMK] (Cbz-Val-Ala-Asp(OMe)-CH2F)",copy numbers of the 500 bp fragment of the 18S rDNA gene,[2]; [7],comparable to the fragment numbers in blood stabilized with the PAXgene Blood ccfDNA Tube
"Cc1ncc(CO)c(CO)c1O [vitamin B6, pyridoxine]",number of 500 bp fragments of the 18S rDNA gene compared to the stabilization reagent without scavenger (irradiated),"[2]; 2 mg/ml in reagent, irradiated (30 kGy) as well as unirradiated, 8 donors, 5 days at room temperature, FIG. 9",only half

# Source: patent US11203777B2, “Method of preparing sterilized compositions for stabilization of extracellular nucleic acids” (Qiagen GmbH, priority 2015, dated 2021)
